Assay results taken from ChEMBL document CHEMBL1201862, “PubChem BioAssay data set” (2004).
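Briefly, cells in 96-well plates were exposed to five compound concentrations for 48 h, and endpoints were estimated by linear interpolation. At the GI50, growth is halved.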 The source made the active and inactive calls. Rule as the data show it: active = GI50 up to about 1.1 µM and inactive = higher.

How the values were obtained:
Assay in all cases: DTP human tumour cell line panel, 48 h
[1] = system: HT-29
[2] = system: SR
[3] = system: HCC 2998
[4] = system: KM12
[5] = system: SF-268
[6] = system: IGROV-1
[7] = system: OVCAR-5
[8] = system: UO-31
[9] = system: SNB-78
[10] = system: TK-10
[11] = system: HCT-15
[12] = system: EKVX
[13] = system: UACC-257
[14] = system: SW-620
[15] = system: SNB-19
[16] = system: UACC-62
[17] = system: SN12C
[18] = system: SF-539
[19] = system: OVCAR-8
[20] = system: KM-20L2
[21] = system: OVCAR-4
[22] = system: Malme-3M
[23] = system: RXF 393
[24] = system: LOX IMVI
[25] = system: SK-MEL-28
[26] = system: 786-0
[27] = system: DLD-1
[28] = system: NCI-H226
[29] = system: CAKI-1
[30] = system: NCI-H522
[31] = system: SNB-75
[32] = system: NCI-H460
[33] = system: MOLT-4
[34] = system: HOP-62
[35] = system: LXFL 529
[36] = system: A549
[37] = system: ACHN
[38] = system: DMS-114
[39] = system: HOP-92
[40] = system: K562
[41] = system: HOP-18
[42] = system: CCRF-CEM
[43] = system: COLO 205
[44] = system: M14
[45] = system: SK-MEL-5
[46] = system: U-251
[47] = system: NCI-H23
[48] = system: HL-60
[49] = system: SF-295
[50] = system: A498
[51] = system: OVCAR-3
[52] = system: DMS-273
[53] = system: M19-MEL
[54] = system: HCT-116

NC(CCSCC(F)(F)F)C(=O)O (centres undefined)
GI50 [1]: > 100 µM (inactive)
GI50 [2]: > 100 µM (inactive)
GI50 [3]: > 100 µM (inactive)
GI50 [4]: > 100 µM (inactive)
GI50 [5]: > 100 µM (inactive)
GI50 [6]: > 100 µM (inactive)
GI50 [7]: > 100 µM (inactive)
GI50 [8]: > 100 µM (inactive)
GI50 [9]: > 100 µM (inactive)
GI50 [10]: > 100 µM (inactive)
GI50 [11]: > 100 µM
GI50 [12]: > 100 µM (inactive)
GI50 [13]: > 100 µM (inactive)
GI50 [14]: > 100 µM (inactive)
GI50 [15]: > 100 µM (inactive)
GI50 [16]: > 100 µM (inactive)
GI50 [17]: > 100 µM (inactive)
GI50 [18]: > 100 µM (inactive)
GI50 [19]: > 100 µM (inactive)
GI50 [20]: > 100 µM (inactive)
GI50 [21]: > 100 µM (inactive)
GI50 [22]: > 100 µM (inactive)
GI50 [23]: > 100 µM (inactive)
GI50 [24]: > 100 µM (inactive)
GI50 [25]: > 100 µM (inactive)
GI50 [26]: > 100 µM (inactive)
GI50 [27]: > 100 µM (inactive)
GI50 [28]: > 100 µM (inactive)
GI50 [29]: > 100 µM (inactive)
GI50 [30]: > 100 µM (inactive)
GI50 [31]: > 100 µM (inactive)
GI50 [32]: > 100 µM (inactive)
GI50 [33]: > 100 µM (inactive)
GI50 [34]: > 100 µM (inactive)
GI50 [35]: > 100 µM (inactive)
GI50 [36]: > 100 µM (inactive)
GI50 [37]: > 100 µM (inactive)
GI50 [38]: > 100 µM (inactive)
GI50 [39]: > 100 µM (inactive)
GI50 [40]: > 100 µM (inactive)
GI50 [41]: > 100 µM (inactive)
GI50 [42]: > 100 µM (inactive)
GI50 [43]: > 100 µM (inactive)
GI50 [44]: > 100 µM (inactive)
GI50 [45]: > 100 µM (inactive)
GI50 [46]: > 100 µM (inactive)
GI50 [47]: > 100 µM (inactive)
GI50 [48]: > 100 µM (inactive)
GI50 [49]: > 100 µM (inactive)
GI50 [50]: > 100 µM (inactive)
GI50 [51]: > 100 µM (inactive)
GI50 [52]: > 100 µM (inactive)
GI50 [53]: > 100 µM (inactive)
GI50 [54]: > 100 µM (inactive)
